Data set [1] in a line: Saturation concentration Cs of phenprocoumon in polymer matrices (sandwich method of Liu). In kind it is physicochemical. To be noted: for Cs of phenprocoumon: 7 days at room temperature. The method, then: The saturation concentration Cs of phenprocoumon was determined in various polymer matrices according to the method of Liu (Liu, P., Gargiulo, P., Wong, J., and Novartis (1997). A Novel Method for Measuring Solubility of a Drug in an Adhesive. Pharmaceutical Research 14, p. 317). In this method, known among experts as the “sandwich” method, the saturation concentration is determined as follows: A laminate is built up with the following sequence of layers: protective film—donor layer with active substance (dissolved and undissolved)—active-substance-permeable membrane—acceptor layer without active substance—protective film. The two protective films consist of identical material; the matrix material of the donor layer and acceptor layer is also identical. The donor layer is prepared by dissolving the active substance in a solution of the polymer in organic solvent. In this process, the concentration of the active substance must be chosen to be high enough that an undissolved residue is visible in the polymer matrix, so that the saturation concentration Cs in the donor layer is safely exceeded. This solution is spread on the protective film and the process solvent is evaporated. Then, the adhesive surface of the donor layer is covered with the membrane. The membrane used is a dialysis tube made of regenerated cellulose (ZelluTrans, from Roth, 46 mm flat width), which has been cut open lengthwise. The acceptor layer is produced analogously to the donor layer without active substance and is applied to the other side of the membrane. The laminates produced in this way are then stored at room temperature for 7 days, during which diffusion of the active substance through the membrane into the acceptor layer occurs. Subsequently, the active substance concentration in the donor layer is determined. For this purpose, aliquots of approx. 1 cm^2 are punched using a punching tool with a standardised surface area. The membrane is then removed, the punched pieces without membrane are weighed, and their weight is documented (m1). Then, the punched pieces are placed in organic solvent to dissolve the matrices. The backing layers are removed, washed and dried and their weight (m2) is determined. From both measured values, the weight of the polymer portion of the […] m3 is obtained as follows: m3=m1−m2 Subsequently, the concentration of phenprocoumon is determined in the solution using HPLC, and its concentration in the donor layer is calculated. The saturation concentrations of phenprocoumon in different polymer matrices determined according to this experimental approach are summarised in Table 1: […]

Data set [2] in a line: Solubility of phenprocoumon in process solvents. In kind it is physicochemical. The method, then:
Since toluene polysiloxane solution is not commercially available, BIO PSA 4201 from Dow Chemicals (polysiloxane in n-heptane) was used as starting material. The solvent was evaporated off and the rubbery polymeric residue was dissolved with enough toluene to obtain a solution with approx. 75% solids.

The conditions of data set [3]: once absorbed by the body; cited from earlier work.

Consider one compound from patent US20220175717A1, “PHENPROCOUMON TTS” (LTS LOHMANN THERAPIE-SYSTEME AG, priority 2019, published 2022).

SMILES strings stand for the structures.

On to `CCC(c1ccccc1)c1c(O)c2ccccc2oc1=O` (stereo not drawn) [phenprocoumon, Phenprocoumon], for which the Cs of phenprocoumon is 6.11% in data set [1] (in acrylate copolymer of 2-ethylhexyl acrylate, vinyl acetate and 2-hydroxyl ethyl acrylate, ethyl acetate); 7.26% in data set [1] (in acrylic copolymer of 2-ethylhexyl acrylate, butyl acrylate, vinyl acetate, acrylic acid, ethyl acetate); 2.8% in data set [1] (in polyisobutylene, polymer dissolved in toluene); 0.3% in data set [1] (in polysiloxane, ethyl acetate); 3.9% in data set [1] (in styrene-isoprene-styrene block copolymer, polymer dissolved in toluene). The “saturation concentration Cs of phenprocoumon” value in data set [1] (in neutral polymers (text summary of Table 1)) is above 5%. Moreover, the solubility result is listed as “sufficiently soluble” in data set [2] (in aromatic hydrocarbons) and “not in n-heptane” in data set [2] (in n-heptane). Also, the biological half-life result in data set [3] is listed as “up to 160 hours”.
